The source of these data is patent US10245249B2, “Pharmaceutical compositions comprising nitroxyl donors” (Cardioxyl Pharmaceuticals, Inc., priority 2013, dated 2019).

Each structure is given as a SMILES string.

One series has as its system dogs. Kind of series: Toxicological profile of compositions formulated at pH 4 or pH 6, 24 hour infusion at 3 μg/kg/min. In kind it is in vivo. The note with it: FIG. 4; for effect of increasing infusate pH from approximately 4 to approximately 6 on toxicology: 1:1 molar donor:CAPTISOL, infused at 3 μg/kg/min. The procedure:
For samples at a pH of 4, the compositions were prepared by admixing a 1:1 molar ratio of the nitroxyl donor:CAPTISOL®, lyophilizing the admixture, then diluting the lyophilized admixture into D5W. For samples at a pH of 6, the compositions were prepared by admixing a 1:1 molar ratio of the nitroxyl donor:CAPTISOL®, lyophilizing the admixture, then diluting the lyophilized admixture into D5W with 5 mM potassium phosphate. Compounds were infused at a rate of 3 μg/kg/min.

The subject of a further series is healthy volunteers. The series can be described thus: 24-hour continuous infusion dose escalation safety study in healthy volunteers. Format: in vivo, human. The procedure: To determine whether a local phlebitis would occur in humans upon longer duration dosing, a longer duration study was conducted in healthy volunteers. The longer duration study included a dose escalation study in which cohorts of 10 volunteers were to be sequentially administered a 24-hour continuous infusion of CXL-1020 at the dose rates of 10, 20, and 30 μg/kg/min with a safety assessment between each cohort. Each cohort consisted of 2 placebo and 8 active treatments with a sentinel pair of 1 active and 1 placebo followed by the main group of 1 placebo and 7 active treatments. The infusion was via a percutaneous catheter inserted into a forearm vein. The catheter was switched to the contralateral arm after 12 hours of infusion.

A further series relates to normal canines. The series can be described thus: Hemodynamic efficacy in normal canines (pressure-volume loop analysis). In kind it is in vivo, beagle dogs. The note with it: i.v. infusion, Dose Rate (μmol/kg/min): CXL-1020 100, (1) 50, (2) 100, (83) 65, (84) 77. The protocol: The cardiovascular effects of nitroxyl donors were examined by means of pressure-volume (PV) curve (loops) analysis in conscious, sling-restrained beagle dogs. Animals were allowed free access to drinking water and a commercial canine diet under standard laboratory conditions. Fluorescent lighting was provided via an automatic timer for approximately 12 hours per day. On occasion, the dark cycle was interrupted intermittently due to study-related activities. Temperature and humidity were monitored and recorded daily and maintained to the maximum extent possible between 64° F. and 84° F. and 30% to 70%, respectively. The dogs were acclimated for a period of at least 1 week prior to surgery. Following surgery and recovery the animals were acclimated to sling restraint for a period up to 4.5 hours. Animals were fasted overnight prior to surgery. An indwelling venous catheter was placed in peripheral vein (e.g., cephalic) for administration of anesthetic. General anesthesia was induced intravenously (bolus) with buprenorphine (about 0.015 mg/kg) followed by an intravenous bolus of propofol (about 6 mg/kg). Additionally, a prophylactic antibiotic (cefazolin 20 to 50 mg/kg via i.v.) was given upon induction. […] Anesthesia was maintained with inhaled isoflurane (1% to 3%). Once a stable (surgical) plane of anesthesia had been established, a left-thoracotomy was performed (under strict aseptic conditions) and each animal was chronically instrumented with sono-micrometry crystals providing left-ventricular (LV) dimensions/volume. Additionally, a fluid-filled catheter and a solid-state monometer were placed in the left ventricle for pressure monitoring. A fluid-filled catheters was placed in the right ventricle (RV) and the aorta (Ao) for pressure monitoring/test article administration. […] The catheters/wires were aseptically tunneled and externalized between the scapulae. Over the course of the study, fluid-filled catheters were regularly (at least once weekly) flushed with a locking-solution in order to prevent both clotting and bacterial growth (2-3 mL of Taurolidine-Citrate solution, TCS-04; Access Technologies). Following the cardiovascular instrumentation, the right jugular vein was carefully exposed and cannulated with a bipolar pacing lead/catheter ([…]® Novus; Medtronic). Under fluoroscopic guidance, this pacing lead was advanced normograde into the right ventricle and actively affixed (screwed in) to the apical endocardium. The proximal end of the lead was secured to the pacing device (Kappa 900; Medtronic). Subsequently, the pacemaker was placed/secured in a subcutaneous pocket in the neck. Considering that the heart was exposed via a thoracotomy, a bipolar pacing wire was secured in the right ventricular mid-myocardium. This pacing lead was tunneled/externalized between the scapulae, and used in conjunction with an external impulse generator/pacemaker. The implanted endocardial pacemaker was used as a back-up to the external/epicardial pacemaker. Prior to closure of the chest from the thoracotomy, a chest tube was placed for drainage of any fluid and/or gas that accumulated from the surgical procedure. The tube was aspirated twice daily until the amount of fluid removed was less than 35 mL per aspiration in an approximately 24 hour period. The chest tube was then removed. All animals were administered a prophylactic antibiotic (cefazolin 20 to 50 mg/kg via i.v.) and pain medication (meloxicam at about 0.2 mg/kg via i.v.). If necessary, an additional analgesic was also administered which included a fentanyl patch (25 to 50 mcg/hour). All surgical incisions were closed in layers; the underlying musculature was closed with absorbable sutures and the skin was closed with staples. Following surgery, the animals were allowed to recover for at least 14 days. Cephalexin (20 to 50 mg/kg) was administered orally BID for at least 7 days and meloxicam (0.1 mg/kg) was administered SID orally or subcutaneously for at least 2 days after surgery. […]

Series [1] in a line: In vitro stability (half-life) in human plasma. The settings on record: human plasma pH 7.4 with anticoagulant, 37° C.; for T1/2 (minutes) Human: 5 μM; for half-life at 5 μM: male, read-out: T1/2 (minutes) Human. Format: in vitro ADME. The procedure:
(§1) Certain compounds from Tables 1 and 2 and CXL-1020 were tested for their stability in phosphate buffered saline (PBS) and plasma. The assay system comprised (i) PBS, or plasma from rat, dog or human (at least 3 donors, male, pooled) at pH 7.4, and (ii) for tests conducted in plasma, an anticoagulant (sodium heparin or sodium citrate). Each test compound (5 μM) was incubated in PBS or plasma at 37° C. on a THERMOMIXER® with shaking. Three samples (n=3) were taken at each of seven sampling time points: 0, 10, 30, 60, 90, 180 and 360 minutes. The samples were immediately combined with 3 volumes (i.e., 3 times the volume of PBS or plasma) of acetonitrile containing 1% formic acid and an internal standard to terminate the reaction. AB SCIEX API 3000 LC-MS/MS analysis of the test compounds was performed without a standard curve. Half-lives (T1/2) of the test compounds were determined from graphs of the percent remaining values using the peak area response ratio. For compounds tested multiple times, the value provided in the Table represents an average of the replicate assays.

Series [2] can be described thus: In vitro stability (half-life) in phosphate buffered saline (PBS) pH 7.4. Format: physicochemical. The note with it: pH 7.4, 5 μM, PBS pH 7.4, 37° C., read-out: T1/2 (minutes) PBS. Summed up: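 Compounds at 5 μM were incubated at 37° C in PBS or in rat, dog or pooled human plasma (heparin or citrate) at pH 7.4. Triplicates were sampled from 0 to 360 minutes and quenched in acetonitrile/formic acid. LC-MS/MS percent remaining gave T1/2, averaged over replicate runs.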

Series [3] in a line: In vitro stability (half-life) in dog plasma. In kind it is in vitro ADME. The settings on record: male, dog, plasma, pH 7.4, 5 μM, dog plasma pH 7.4 with anticoagulant, 37° C.; read-out: T1/2 (minutes) Dog. The protocol:
as §1

Series [4] in a line: In vitro stability (half-life) in rat plasma. In kind it is in vitro ADME. The note with it: male, rat, plasma, pH 7.4, 5 μM, rat plasma pH 7.4 with anticoagulant, 37° C.; read-out: T1/2 (minutes) Rat. The protocol:
as §1

`CS(=O)(=O)c1ccccc1S(=O)(=O)NO` [CXL-1020, N-hydroxy-2-methanesulfonylbenzene-1-sulfonamide, reference compound]: the “effect of increasing infusate pH from approximately 4 to approximately 6 on toxicology” value in the series with dogs is “improved the toxicology”. Moreover, in the series with dogs (dogs), the “improvement of inflammatory profile on increasing infusate pH from 4 to 6” value was “approximately 3 fold”. Also, the tolerability result in the series with healthy volunteers (10 μg/kg/min for 24-hours) is “well tolerated”. In addition, in the series on healthy volunteers (20 μg/kg/min for 24-hours), the adverse findings entry was “mild findings (either clinical signs and/or changes in clinical pathology) in all 8 subjects consistent with infusion site phlebitis”. Besides, in the series on normal canines, the EDV was −20.51 ± 7.63 % Change from Baseline, the ESP is reported as −17.79 ± 3.09 % Change from Baseline, the ESPVR was 28.25 ± 8.69 % Change from Baseline and the HR is reported as 6.71 ± 4.72 % Change from Baseline. Also, in the series on normal canines, the PRSW is given as 12.60 ± 2.96 % Change from Baseline, the SW is −13.96 ± 5.51 % Change from Baseline and the Tau is reported as −6.58 ± 4.53 % Change from Baseline.

`Cc1ccc(S(=O)(=O)NO)o1` [Compound 1, N-Hydroxy-5-methylfuran-2-sulfonamide]: in series [1], the “T1/2 (minutes) Human” value is 65 min. In the series on normal canines, the EDV was −6 ± 2 % Change from Baseline, the ESP is −18 ± 2 % Change from Baseline, the ESPVR is given as 19 ± 1 % Change from Baseline and the HR is −4 ± 2 % Change from Baseline. Moreover, in the series with normal canines, the PRSW is listed as 12 ± 1 % Change from Baseline, the SW was −11 ± 4 % Change from Baseline and the Tau was −6 ± 1 % Change from Baseline.

Take `CS(=O)(=O)c1cccc(S(=O)(=O)NO)c1` [Compound 2, N-Hydroxy-3-methanesulfonylbenzene-1-sulfonamide]: the “effect of increasing infusate pH from approximately 4 to approximately 6 on toxicology” value in the series on dogs is “improved the toxicology”. In addition, the “T1/2 (minutes) Human” value in series [1] came to 37 min. Besides, in the series with normal canines, the EDV is on record as −17.41 ± 1.58 % Change from Baseline, the ESP is recorded as −15.22 ± 2.39 % Change from Baseline, the ESPVR was found to be 25.87 ± 5.04 % Change from Baseline and the HR is given as −6.17 ± 5.58 % Change from Baseline. For the same molecule, in the series on normal canines, the PRSW amounted to 12.88 ± 1.12 % Change from Baseline, the SW is recorded as −17.56 ± 2.66 % Change from Baseline and the Tau is reported as −6.40 ± 7.11 % Change from Baseline.

On to `O=S(=O)(NO)c1ccco1` [Compound 83, N-Hydroxyfuran-2-sulfonamide], for which the half-life at 5 μM in series [1] is 16 min. Besides, the half-life at 5 μM in series [2] was found to be 37 min. Also, the half-life at 5 μM in series [3] is 38 min. For the same molecule, in the series with normal canines, the EDV is given as −16.88 ± 1.69 % Change from Baseline, the ESP was −21.99 ± 3.32 % Change from Baseline, the ESPVR came to 29.33 ± 8.36 % Change from Baseline and the HR is given as 2.89 ± 2.94 % Change from Baseline. In the series on normal canines, the PRSW is listed as 19.79 ± 3.39 % Change from Baseline, the SW is reported as −19.18 ± 6.70 % Change from Baseline and the Tau is on record as −10.10 ± 1.56 % Change from Baseline. Also, the half-life at 5 μM in series [4] stood at 43 min.

As to `Cc1ccc(S(=O)(=O)NO)s1` [Compound 84, N-Hydroxy-5-methylthiophene-2-sulfonamide], the half-life at 5 μM in series [1] was 60 min. The half-life at 5 μM in series [2] came out at 125 min. For the same molecule, in series [3], the half-life at 5 μM was found to be 55 min. In the series on normal canines, the EDV is −10.99 ± 2.33 % Change from Baseline, the ESP is reported as −16.85 ± 2.33 % Change from Baseline, the ESPVR is reported as 50.71 ± 8.14 % Change from Baseline and the HR stood at 4.31 ± 2.98 % Change from Baseline. In addition, in the series with normal canines, the PRSW is on record as 17.70 ± 2.35 % Change from Baseline, the SW is on record as −13.98 ± 1.14 % Change from Baseline and the Tau was −9.60 ± 6.06 % Change from Baseline. The half-life at 5 μM in series [4] amounted to 65 min.

As to `Cn1ccc(S(=O)(=O)NO)n1` [Compound 85, N-Hydroxy-1-methyl-1H-pyrazole-3-sulfonamide], the half-life at 5 μM in series [2] was 59 min; in series [3], 72 min.
